Assay results reported in patent US7595401B2, “Therapeutic compounds and their use in cancer” (Myriad Pharmaceuticals, Inc., priority 2006, dated 2009).

Tested on: purified human Hsp90
Assay: Binding Assay: fluorescence polarization with BODIPY-labeled geldanamycin
Details: BODIPY-GM 10 nM, Hsp90 30 nM
Outline: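 Fluorescence polarization competition with BODIPY-geldanamycin (10 nM final) and human Hsp90 (30 nM final) in HEPES-KOH pH 7.3 buffer with molybdate, NP-40, DTT; 2% DMSO, overnight at room temperature. Read 485/530 nm; percent inhibition from mP normalized to DMSO controls, fluorescent-compound points excluded.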

SMILES | % Inhibition at 5 μM Compound Concentration | IC50
CCOc1cc(CCn2c(Sc3cc4c(cc3Br)OCO4)nc3c(N)ncnc32)ccc1OC [Example 117, 8-(6-Bromo-benzo[1,3]dioxol-5-ylsulfanyl)-9-[2-(3-ethoxy-4-methoxy-phenyl)-ethyl]-9H-purin-6-ylamine] | 54% | 300 nM
CCOc1cc(CCn2cnc(N)c3nc(Sc4cc5c(cc4Br)OCO5)nc2-3)ccc1OC [Example 118, 8-(6-bromo-benzo[1,3]dioxol-5-ylsulfanyl)-3-[2-(3-ethoxy-4-methoxy-phenyl)-ethyl]-3H-purin-6-ylamine] | 0% | 
COc1ccc(OC)c(Sc2nc3c(N)ncnc3n2CC(c2ccc(Cl)cc2)C(C)C)c1 (stereo not shown) [Example 119, 9-[2-(4-Chloro-phenyl)-3-methyl-butyl]-8-(2,5-dimethoxy-phenylsulfanyl)-9H-purine-6-ylamine] | 15% | 
COc1ccc(OC)c(Sc2nc3c(N)ncn(CC(c4ccc(Cl)cc4)C(C)C)c-3n2)c1 (stereo not shown) [Example 120, 3-[2-(4-chloro-phenyl)-3-methyl-butyl]-8-(2,5-dimethoxy-phenylsulfanyl)-3H-purine-6-ylamine] | 0% | 
COc1ccc(OC)c(Sc2nc3c(N)ncnc3n2CCc2ccc(F)cc2F)c1 [Example 121, 9-[2-(2,4-Difluoro-phenyl)-ethyl]-8-(2,5-dimethoxy-phenylsulfanyl)-9H-purine-6-ylamine] | 54% | 520 nM
COc1ccc(OC)c(Sc2nc3c(N)ncnc3n2CCc2c(F)cccc2Cl)c1 [Example 122, 9-[2-(2-chloro-6-fluoro-phenyl)-ethyl]-8-(2,5-dimethoxy-phenylsulfanyl)-9H-purine-6-ylamine] |  | 85 nM
COc1ccc(OC)c(Sc2nc3c(N)ncn(CCc4c(F)cccc4Cl)c-3n2)c1 [Example 123, 3-[2-(2-chloro-6-fluoro-phenyl)-ethyl]-8-(2,5-dimethoxy-phenylsulfanyl)-3H-purine-6-ylamine] | 0% | 
Cc1ccc(C)c(CCn2c(Sc3cc4c(cc3Br)OCO4)nc3c(N)ncnc32)c1 [Example 124, 8-(6-Bromo-benzo[1,3]dioxol-5-ylsulfanyl)-9-[2-(2,5-dimethyl-phenyl)-ethyl]-9H-purin-6-ylamine] |  | 220 nM
Cc1ccc(C)c(CCn2cnc(N)c3nc(Sc4cc5c(cc4Br)OCO5)nc2-3)c1 [Example 125, 8-(6-bromo-benzo[1,3]dioxol-5-ylsulfanyl)-3-[2-(2,5-dimethyl-phenyl)-ethyl]-3H-purin-6-ylamine] | 12% | 
CC(C)C(Cn1c(Sc2cc3c(cc2Br)OCO3)nc2c(N)ncnc21)c1ccccc1 (stereo not shown) [Example 126, 8-(6-Bromo-benzo[1,3]dioxol-5-ylsulfanyl)-9-(3-methyl-2-phenyl-butyl)-9H-purin-6-ylamine] |  | 300 nM
CC(C)C(Cn1cnc(N)c2nc(Sc3cc4c(cc3Br)OCO4)nc1-2)c1ccccc1 (stereo not shown) [Example 127, 8-(6-bromo-benzo[1,3]dioxol-5-ylsulfanyl)-3-(3-methyl-2-phenyl-butyl)-3H-purin-6-ylamine] | 51% | 
Nc1ncnc2c1nc(Sc1cc3c(cc1Br)OCO3)n2CCc1c(Cl)cccc1Cl [Example 128, 8-(6-Bromo-benzo[1,3]dioxol-5-ylsulfanyl)-9-[2-(2,6-dichloro-phenyl)-ethyl]-9H-purin-6-ylamine] |  | 66 nM
Nc1ncn(CCc2c(Cl)cccc2Cl)c2nc(Sc3cc4c(cc3Br)OCO4)nc1-2 [Example 129, 8-(6-bromo-benzo[1,3]dioxol-5-ylsulfanyl)-3-[2-(2,6-dichloro-phenyl)-ethyl]-3H-purin-6-ylamine] | 54% | 
Nc1ncnc2c1nc(Sc1cc3c(cc1Br)OCO3)n2CCc1c(F)cccc1Cl [Example 130, 8-(6-Bromo-benzo[1,3]dioxol-5-ylsulfanyl)-9-[2-(2-chloro-6-fluoro-phenyl)-ethyl]-9H-purin-6-ylamine] |  | 40 nM
Nc1ncn(CCc2c(F)cccc2Cl)c2nc(Sc3cc4c(cc3Br)OCO4)nc1-2 [Example 131, 8-(6-bromo-benzo[1,3]dioxol-5-ylsulfanyl)-3-[2-(2-chloro-6-fluoro-phenyl)-ethyl]-3H-purin-6-ylamine] | 18% | 
COc1ccc(OC)c(Sc2nc3c(N)ncnc3n2CCc2cc(C)cc(C)c2)c1 [Example 132, 8-(2,5-Dimethoxy-phenylsulfanyl)-9-[2-(3,5-dimethyl-phenyl)-ethyl]-9H-purine-6-ylamine] | 54% | 500 nM
COc1ccc(OC)c(Sc2nc3c(N)ncn(CCc4cc(C)cc(C)c4)c-3n2)c1 [Example 133, 8-(2,5-dimethoxy-phenylsulfanyl)-3-[2-(3,5-dimethyl-phenyl)-ethyl]-3H-purine-6-ylamine] | 0% | 
COc1ccc(OC)c(Sc2nc3c(N)ncnc3n2CCc2ccncc2)c1 [Example 134, 8-(2,5-Dimethoxy-phenylsulfanyl)-9-(2-pyridin-4-yl-ethyl)-9H-purin-6-ylamine] |  | > 3000 nM
COc1ccc(OC)c(Sc2nc3c(N)ncnc3n2CCc2ccccn2)c1 [Example 135, 8-(2,5-Dimethoxy-phenylsulfanyl)-9-(2-pyridin-2-yl-ethyl)-9H-purin-6-ylamine] |  | 1300 nM
COc1ccc(OC)c(Sc2nc3c(N)ncn(CCc4ccccn4)c-3n2)c1 [Example 136, 8-(2,5-Dimethoxy-phenylsulfanyl)-3-(2-pyridin-2-yl-ethyl)-3H-purin-6-ylamine] | 16% | 
COc1ccc(OC)c(Sc2nc3c(N)ncnc3n2CCc2cccc(I)c2)c1 [Example 137, 8-(2,5-Dimethoxy-phenylsulfanyl)-9-[2-(3-iodo-phenyl)-ethyl]-9H-purin-6-ylamine] |  | 210 nM
COc1ccc(OC)c(Sc2nc3c(N)ncn(CCc4cccc(I)c4)c-3n2)c1 [Example 138, 8-(2,5-dimethoxy-phenylsulfanyl)-3-[2-(3-iodo-phenyl)-ethyl]-3H-purin-6-ylamine] | 0% | 
COc1ccc(OC)c(Sc2nc3c(N)ncnc3n2CCc2ccc(F)cc2Cl)c1 [Example 139, 9-[2-(2-chloro-4-fluoro-phenyl)-ethyl]-8-(2,5-dimethoxy-phenylsulfanyl)-9H-purin-6-ylamine] |  | 90 nM
COc1ccc(OC)c(Sc2nc3c(N)ncn(CCc4ccc(F)cc4Cl)c-3n2)c1 [Example 140, 3-[2-(2-chloro-4-fluoro-phenyl)-ethyl]-8-(2,5-dimethoxy-phenylsulfanyl)-3H-purin-6-ylamine] | 0% | 
COc1ccc(OC)c(Sc2nc3c(N)ncnc3n2CCc2ccccc2Br)c1 [Example 141, 9-[2-(2-Bromo-phenyl)-ethyl]-8-(2,5-dimethoxy-phenylsulfanyl)-9H-purin-6-ylamine] |  | 40 nM
COc1ccc(OC)c(Sc2nc3c(N)ncn(CCc4ccccc4Br)c-3n2)c1 [Example 142, 3-[2-(2-bromo-phenyl)-ethyl]-8-(2,5-dimethoxy-phenylsulfanyl)-3H-purin-6-ylamine] | 0% | 

The next lines start with the values.

% Inhibition at 5 μM Compound Concentration | IC50 | SMILES
 | > 3000 nM | COc1ccc(OC)c(Sc2nc3c(N)ncnc3n2CCc2cc(F)cc(F)c2)c1 [Example 143, 9-[2-(3,5-Difluoro-phenyl)-ethyl]-8-(2,5-dimethoxy-phenylsulfanyl)-9H-purin-6-ylamine]
0% |  | COc1ccc(OC)c(Sc2nc3c(N)ncn(CCc4cc(F)cc(F)c4)c-3n2)c1 [Example 144, 3-[2-(3,5-difluoro-phenyl)-ethyl]-8-(2,5-dimethoxy-phenylsulfanyl)-3H-purin-6-ylamine]
 | > 3000 nM | COc1ccc(OC)c(Sc2nc3c(N)ncnc3n2CCc2cccc(F)c2F)c1 [Example 145, 9-[2-(2,3-Difluoro-phenyl)-ethyl]-8-(2,5-dimethoxy-phenylsulfanyl)-9H-purin-6-ylamine]
0% |  | COc1ccc(OC)c(Sc2nc3c(N)ncn(CCc4cccc(F)c4F)c-3n2)c1 [Example 146, 3-[2-(2,3-difluoro-phenyl)-ethyl]-8-(2,5-dimethoxy-phenylsulfanyl)-3H-purin-6-ylamine]
 | 44 nM | Nc1ncnc2c1nc(Sc1cc3c(cc1Br)OCO3)n2CCc1ccccc1F [Example 147, 8-(6-Bromo-1,3-benzodioxol-5-ylsulfanyl)-9-[2-(2-fluoro-phenyl)-ethyl]-9H-purin-6-ylamine]
35% |  | Nc1ncn(CCc2ccccc2F)c2nc(Sc3cc4c(cc3Br)OCO4)nc1-2 [Example 148, 8-(6-bromo-benzo[1,3]dioxol-5-ylsulfanyl)-3-[2-(2-fluoro-phenyl)-ethyl]-3H-purin-6-ylamine]
 | 70 nM | Nc1ncnc2c1nc(Sc1cc3c(cc1Br)OCO3)n2CCc1ccccc1Br [Example 149, 8-(6-Bromo-benzo[1,3]dioxol-5-ylsulfanyl)-9-[2-(2-bromo-phenyl)-ethyl]-9H-purin-6-ylamine]
0% |  | Nc1ncn(CCc2ccccc2Br)c2nc(Sc3cc4c(cc3Br)OCO4)nc1-2 [Example 150, 8-(6-bromo-benzo[1,3]dioxol-5-ylsulfanyl)-3-[2-(2-bromo-phenyl)-ethyl]-3H-purin-6-ylamine]
 | 50 nM | Nc1ncnc2c1nc(Sc1cc3c(cc1Br)OCO3)n2CCc1cccnc1 [Example 151, 8-(6-Bromo-benzo[1,3]dioxol-5-ylsulfanyl)-9-(2-pyridin-3-yl-ethyl)-9H-purin-6-ylamine]
20% |  | Nc1ncn(CCc2cccnc2)c2nc(Sc3cc4c(cc3Br)OCO4)nc1-2 [Example 152, 8-(6-bromo-benzo[1,3]dioxol-5-ylsulfanyl)-3-(2-pyridin-3-yl-ethyl)-3H-purin-6-ylamine]
 | 600 nM | Nc1ncnc2c1nc(Sc1cc3c(cc1Br)OCO3)n2CCc1cccc(I)c1 [Example 153, 8-(6-Bromo-benzo[1,3]dioxol-5-ylsulfanyl)-9-[2-(3-iodo-phenyl)-ethyl]-9H-purin-6-ylamine]
